Assay results reported in ChEMBL document CHEMBL5512655, “Discovery of indolylacryloyl-derived oxacins as novel potential broad-spectrum antibacterial candidates” (Eur J Med Chem, 2024).
Values after ≈ are worked out from the molar mass of the structure shown. Active and inactive are the calls of the source. No cut-off for these calls is given here.

How the values were obtained:
[1] = system: Escherichia coli; assay: Anti-biofilm effect in Escherichia coli assessed as biofilm destruction by measuring eradication rate at MIC; assay type: functional
[2] = system: Escherichia coli; assay: Antibacterial activity against Escherichia coli assessed as reduction in bacterial burden at 2 to 4 times of MIC measured within 5 hrs by time-dependent kinetics assay; assay type: functional, organism-based
[3] = system: Staphylococcus aureus; assay: Anti-biofilm effect in methicillin-resistant Staphylococcus aureus N315 assessed as biofilm destruction rate at 6 times of MIC; assay type: functional
[4] = system: Cell membrane; assay: Induction of cell membrane damage in Escherichia coli assessed as increase in density of red fluorescence at 4 times of MIC by Calcein-AM/PI dual staining based fluorescence microscopy; assay type: cell membranes
[5] = system: Staphylococcus aureus; assay: Antibacterial activity against methicillin-resistant Staphylococcus aureus N315 assessed as resistance development measured after 18 generations; assay type: functional, organism-based
[6] = system: Escherichia coli; assay: Antibacterial activity against Escherichia coli ATCC 25922 assessed as inhibition of bacterial growth measured after 24 hrs incubation; assay type: functional
[7] = system: Escherichia coli; assay: Antibacterial activity against Escherichia coli assessed as reduction in bacterial burden at 2 to 4 times of MIC measured upto 7 hrs by time-dependent kinetics assay; assay type: functional, organism-based
[8] = system: Escherichia coli; assay: Reduction in metabolic activity in Escherichia coli at 6 times of MIC by Alamar Blue assay relative to control; assay type: functional; parameters: scale not given: the % may be the effect or the level left
[9] = system: Staphylococcus aureus; assay: Induction of lipid peroxidation in methicillin-resistant Staphylococcus aureus N315 assessed as malondialdehyde (MDA) level production; assay type: functional, organism-based
[10] = system: Escherichia coli; assay: Reduction in metabolic activity in Escherichia coli by Alamar Blue assay; assay type: functional, organism-based
[11] = system: Staphylococcus aureus; assay: Induction of lipid peroxidation in methicillin-resistant Staphylococcus aureus N315 assessed as malondialdehyde (MDA) level production at 4 time of MIC; assay type: functional, organism-based
[12] = system: Klebsiella pneumoniae; assay: Antibacterial activity against Klebsiella pneumonia assessed as inhibition of bacterial growth measured after 24 hrs incubation; assay type: functional
[13] = system: Staphylococcus aureus; assay: Reduction in metabolic activity in methicillin-resistant Staphylococcus aureus N315 by Alamar Blue assay; assay type: functional, organism-based
[14] = system: Escherichia coli; assay: Induction of lipid peroxidation in Escherichia coli assessed as malondialdehyde (MDA) level production at 4 time of MIC; assay type: functional, organism-based
[15] = system: Escherichia coli; assay: Anti-biofilm effect in Escherichia coli assessed as inhibition of biofilm formation by measuring reduction in exo-polysaccharide content at 6 times of MIC relative to control; assay type: functional
[16] = system: Staphylococcus aureus; assay: Reduction in metabolic activity in methicillin-resistant Staphylococcus aureus N315 at 6 times of MIC by Alamar Blue assay relative to control; assay type: functional; parameters: scale not given: the % may be the effect or the level left
[17] = system: Staphylococcus aureus; assay: Antibacterial activity against methicillin-resistant Staphylococcus aureus N315 assessed as inhibition of bacterial growth measured after 24 hrs incubation; assay type: functional
[18] = system: Escherichia coli; assay: Induction of ROS production in Escherichia coli assessed as fluorescence intensity by DCFH-DA (dichlorofluorescin diacetate) probe based assay; assay type: functional, organism-based
[19] = system: Calf thymus DNA; assay: Binding affinity to calf thymus DNA assessed as DNA intercalation with drug by […] assay; assay type: nucleic-acid assay; details: Bos taurus
[20] = system: Staphylococcus aureus; assay: Antibacterial activity against methicillin-resistant Staphylococcus aureus N315 assessed as resistance development by measuring compound concentration required to inhibit measured after 18 generations; assay type: functional
[21] = system: Staphylococcus aureus; assay: Anti-biofilm effect in methicillin-resistant Staphylococcus aureus N315 assessed as biofilm destruction by measuring eradication rate at MIC; assay type: functional
[22] = Hemolytic activity in human red blood cells assessed as hemolysis rate at 64 ug/ml relative to control; assay type: toxicity, cell-based, Erythrocyte; details: red blood cells (erythrocytes), at 64 µg/mL, read-out: Activity
[23] = system: Escherichia coli; assay: Antibacterial activity against Escherichia coli assessed as resistance development by measuring compound concentration required to inhibit measured after 18 generations; assay type: functional
[24] = system: Calf thymus DNA; assay: Binding affinity to calf thymus DNA assessed as hypochromism by spectroscopic analysis; assay type: nucleic-acid assay; details: Bos taurus
[25] = Hemolytic activity in human red blood cells assessed as hemolysis rate at 512 ug/ml relative to control; assay type: toxicity, cell-based, Erythrocyte; details: red blood cells (erythrocytes), at 512 µg/mL, read-out: Activity
[26] = system: Pseudomonas aeruginosa; assay: Antibacterial activity against Pseudomonas aeruginosa assessed as inhibition of bacterial growth measured after 24 hrs incubation; assay type: functional
[27] = system: Cell membrane; assay: Induction of cytoplasmic membrane integrity loss in methicillin-resistant Staphylococcus aureus N315 assessed as increase in fluorescence intensity at MIC by Propidium iodide method (reference value: 554); assay type: cell membranes
[28] = system: Staphylococcus aureus; assay: Antibacterial activity against methicillin-resistant Staphylococcus aureus N315 assessed as resistance development measured after 10 generations; assay type: functional, organism-based
[29] = system: Escherichia coli; assay: Anti-biofilm effect in Escherichia coli assessed as biofilm destruction rate at 6 times of MIC; assay type: functional
[30] = system: Escherichia coli; assay: Induction of ROS production in Escherichia coli assessed as fluorescence intensity at 2 times of MIC by DCFH-DA (dichlorofluorescin diacetate) probe based assay; assay type: functional
[31] = system: Staphylococcus aureus; assay: Antibacterial activity against Staphylococcus aureus ATCC 29213 assessed as inhibition of bacterial growth measured after 24 hrs incubation; assay type: functional
[32] = system: Escherichia coli; assay: Antibacterial activity against Escherichia coli assessed as resistance development measured after 11 generations; assay type: functional, organism-based
[33] = system: Enterococcus faecalis; assay: Antibacterial activity against Enterococcus faecalis assessed as inhibition of bacterial growth measured after 24 hrs incubation; assay type: functional
[34] = system: Staphylococcus aureus; assay: Antibacterial activity against methicillin-resistant Staphylococcus aureus N315 assessed as reduction in bacterial burden at 2 to 4 times of MIC measured upto 7 hrs by time-dependent kinetics assay; assay type: functional, organism-based
[35] = system: Staphylococcus aureus; assay: Anti-biofilm effect in methicillin-resistant Staphylococcus aureus N315 assessed as inhibition of biofilm formation by measuring reduction in exo-polysaccharide content at 6 times of MIC relative to control; assay type: functional
[36] = system: Cell membrane; assay: Induction of cell membrane damage in methicillin-resistant Staphylococcus aureus N315 assessed as increase in density of red fluorescence at 4 times of MIC by Calcein-AM/PI dual staining based fluorescence microscopy; assay type: cell membranes
[37] = system: Staphylococcus aureus; assay: Antibacterial activity against Staphylococcus aureus ATCC 25923 assessed as inhibition of bacterial growth measured after 24 hrs incubation; assay type: functional
[38] = system: Pseudomonas aeruginosa; assay: Antibacterial activity against Pseudomonas aeruginosa ATCC 27853 assessed as inhibition of bacterial growth measured after 24 hrs incubation; assay type: functional
[39] = system: Escherichia coli; assay: Antibacterial activity against Escherichia coli assessed as inhibition of bacterial growth measured after 24 hrs incubation; assay type: functional
[40] = system: Escherichia coli; assay: Induction of lipid peroxidation in Escherichia coli assessed as malondialdehyde (MDA) level production; assay type: functional, organism-based
[41] = system: Escherichia coli; assay: Antibacterial activity against Escherichia coli assessed as resistance development measured after 18 generations; assay type: functional, organism-based
[42] = system: Staphylococcus aureus; assay: Antibacterial activity against methicillin-resistant Staphylococcus aureus N315 assessed as reduction in bacterial burden at 2 to 4 times of MIC measured within 5 hrs by time-dependent kinetics assay; assay type: functional, organism-based
[43] = system: Staphylococcus aureus; assay: Antibacterial activity against Staphylococcus aureus assessed as inhibition of bacterial growth measured after 24 hrs incubation; assay type: functional
[44] = system: Acinetobacter baumannii; assay: Antibacterial activity against Acinetobacter baumannii assessed as inhibition of bacterial growth measured after 24 hrs incubation; assay type: functional
[45] = system: Staphylococcus aureus; assay: Induction of ROS production in methicillin-resistant Staphylococcus aureus N315 assessed as fluorescence intensity at 2 times of MIC by DCFH-DA (dichlorofluorescin diacetate) probe based assay
[46] = system: Calf thymus DNA; assay: Binding affinity to calf thymus DNA by acridine orange staining based competitive binding assay; assay type: nucleic-acid assay; details: Bos taurus

SMILES: CCn1cc(C(=O)O)c(=O)c2cc(F)c(N3CCN(C(=O)/C(C#N)=C/c4cn(CCO)c5ccccc45)CC3)cc21
- inhibition (INH) [1]: 40.3%
- Activity [2]: Active
- inhibition (INH) [3]: >60%
- Activity [4]: Active
- Activity [5]: Active
- MIC [6]: 0.5 µg/mL (≈ 0.897 µM)
- Activity [7]: Active
- Activity [8]: >50%
- Activity [9]: Dose-Dependent Effect
- Activity [10]: Dose-Dependent Effect
- Activity [11]: Active
- MIC [12]: 0.25 µg/mL (≈ 0.448 µM)
- Activity [13]: Dose-Dependent Effect
- Activity [14]: Active
- inhibition (INH) [15]: <50%
- Activity [16]: >50%
- MIC [17]: 0.25 µg/mL (≈ 0.448 µM)
- Activity [18]: Dose-Dependent Effect
- Activity [19]: Active
- MIC [20]: 64 µg/mL (≈ 115 µM)
- inhibition (INH) [21]: 22.1%
- hemolysis at 64 ug/ml [22]: < 1.8%
- MIC [23]: 32 µg/mL (≈ 57.4 µM)
- Activity [24]: Active
- hemolysis at 512 ug/ml [25]: < 1.8%
- MIC [26]: 1 µg/mL (≈ 1.79 µM)
- Flu intensity [27]: 1250
- Activity [28]: inactive
- inhibition (INH) [29]: >60%
- Activity [30]: >50%
- MIC [31]: 0.25 µg/mL (≈ 0.448 µM)
- Activity [32]: inactive
- MIC [33]: 0.25 µg/mL (≈ 0.448 µM)
- Activity [34]: Active
- inhibition (INH) [35]: <50%
- Activity [36]: Active
- MIC [37]: 0.25 µg/mL (≈ 0.448 µM)
- MIC [38]: 0.5 µg/mL (≈ 0.897 µM)
- MIC [39]: 0.25 µg/mL (≈ 0.448 µM)
- Activity [40]: Dose-Dependent Effect
- Activity [41]: Active
- Activity [42]: Active
- MIC [43]: 0.25 µg/mL (≈ 0.448 µM)
- MIC [44]: 0.5 µg/mL (≈ 0.897 µM)
- Activity [45]: >50%
- Activity [46]: Active
